Laboratory results published in patent publication US9157064B2, “Methods for generating inner ear cells in vitro” (The Board of Trustees of the Leland Stanford Junior …, priority 2011, dated 2015).
“Also recorded” adds a separate entry of the source.

How the values were obtained:
Assay type in all cases: cell-based, mouse
[1] = system: iPSC-derived hair cell-like cell; test: Mechanically induced currents of iPSC-derived hair cell-like cells (patch clamp); details: local application of 1 mM DHSM to hair bundles, then mechanical stimulation
Description: (§1) nGFP-expressing hair cell-like cells were identified by fluorescence microscopy, and nearby hair bundle-like protrusions were imaged with a […] objective with brightfield optics. Recordings were conducted with an Axoclamp 200a (Axon Instruments) amplifier, interfaced with a DIGIDATA® 1332 board (Axon), and jClamp Software (Scisoft). Mechanical stimulation was done with a stiff glass probe attached to a piezo stack.
(§2) More specifically, cultured cells were placed onto the stage of an OLYMPUS® BX 51 fixed stage upright microscope and imaged using a 100× dipping objective using brightfield optics. Images were collected using a C2400 NARISHIGE® analog camera coupled via a framegrabber to a PC computer using Image J software. Soda glass electrodes, coated with ski wax (MR. ZOG'S SEX WAX®) to limit stray capacitance, of resistances 3-5MΩ, were used to record from both ES and iPS cells. The culture medium was replaced during electrophysiological recordings with a solution containing (in mM) 140 NaCl, 5 KCl, 1 MgCl2, 2.5 CaCl, 10 HEPES, 6 glucose, 2 pyruvate, 2 ascorbate, 2 creatine. […] Data was analyzed with ORIGIN® software (Microcal). […]
(§3) Adaptation is a complex process in which hair bundle dynamic range is enhanced and sensitivity maintained over large displacements (Eatock, 2000). […] The fast time constant measured was 0.5±0.4 ms (n=5) and the slow was 11±5 ms (n=5). […]

[2] = system: ESC-derived hair cell-like cell; test: Mechanically induced currents of ESC-derived hair cell-like cells (patch clamp); details: local application of 1 mM DHSM to hair bundles, then mechanical stimulation
Description: as §1, §2, §3

[3] = system: iPSC-derived cultures; test: Otic induction of iPSC-derived embryoid body cultures (Pax2 immunostaining); details: iPSC derivatives; not treated with any of the three initial factors, but treated with bFGF
Description: (§4) Embryoid bodies were transferred into fibronectin-coated 4-well dishes (Greiner) at 30 embryoid bodies per well and cultured for three days in DMEM/F12 (Invitrogen, mixed 1:1) supplemented with N2 and B27 (Invitrogen), bFGF (R&D Systems, 25 ng/ml), heparin sulfate (Sigma, 50 ng/ml), and ampicillin ([…]). FGF3 (recombinant human FGF-3, R&D Systems) and FGF10 (recombinant human FGF-10, R&D Systems) were used at 25 ng/ml in parallel experiments. The FGF receptor antagonist SU5402 (a gift from Pfizer R&D) was used at […]. After FGF-treatment, the cells were detached using 0.05% trypsin/EDTA (Sigma) in PBS, mildly triturated, and passed 1:10 into individual wells of 4-well dishes coated with either fibronectin, gelatin, MEFs, or mitotically inactivated embryonic (E18) chicken utricle stromal cells. Utricle stromal cells were prepared from 20 utricles whose sensory epithelia were removed after 40 min treatment with 0.5 mg/ml thermolysin (Sigma) in DMEM/F12 at 37 C. After addition of 5% serum, the sensory epithelia were removed and used in unrelated experiments. […]
(§5) For immunocytochemistry, the cells were fixed with 4% paraformaldehyde in PBS for 15 min at room temperature. […] Images were acquired with a Zeiss Axioimager/LSM 5 Exciter fluorescence and confocal microscope. […]

[4] = system: ESC-derived cultures; test: Otic induction of ESC-derived embryoid body cultures (Pax2 immunostaining); details: ESC derivatives; not treated with any of the three initial factors, but treated with bFGF
Description: as §4, §5

**Q.** How did the “mechanically induced (evoked) currents” value [1] turn out when `CN[C@@H]1[C@H](O[C@H]2[C@H](O[C@H]3[C@H](O)[C@@H](O)[C@H](NC(=N)N)[C@@H](O)[C@@H]3NC(=N)N)O[C@@H](C)[C@]2(O)CO)O[C@@H](CO)[C@H](O)[C@H]1O` [DHSM, dihydrostreptomycin] was run?
**A.** antagonized reversibly; also recorded: reversibly blocked

**Q.** And the “mechanically induced (evoked) currents” value [2]?
**A.** antagonized reversibly; also recorded: reversibly blocked

**Q.** “bFGF: fibroblast growth factor FGF2 (bFGF), general otic inducer” was tested. Which Pax2-expressing cells [3] did it give?
**A.** 0.1±0.09%

**Q.** And the Pax2-expressing cells [4]?
**A.** 0.05±0.04%
